≈ marks a conversion by molar mass, not a printed value.
Tests used:
A. fumigatus NRRL 163 = assay: MIC, agar incorporation method; assay type: cell-based; details: Aspergillus fumigatus, NRRL163, NRRL 163; 32° C., 48-72 hours; read-out: Minimal Inhibitory Concentration
Method: (§1) The compounds of the present invention were tested for their ability to inhibit the growth of microorganisms by in vitro tests. Generally the in vitro tests involve growing representative microorganisms under conditions favorable to such growth and measuring the effectiveness of one or more compounds in inhibiting or destroying the growth of the microorganisms. The microorganisms used include representative bacteria, fungi and yeasts.
(§2) A representative selection of the test microorganisms were cultured in a nutrient broth, such as, for example, Eugon, commercially available from Difco Laboratories, Detroit, Michigan. Bacteria and Candida species were cultured for 24 hours at 32°-37° C. and fungi were cultured for approximately one week at 32° C. Inocula were prepared by suspending the growth or spores from a slant culture in sufficient sterile normal (0.9 percent) saline or Eugon broth, to yield cell or spore concentrations of 1,000,000 cells per milliliter. Anaerobic bacteria were cultured for 48-72 hours at 32°-37° C. in a thioglycollate containing medium, for example, Fluid Thioglycollate medium or NIH thioglycollate broth, commercially available from Difco Laboratories.
(§3) The compounds of the present invention were tested for activity against bacteria, yeasts and fungi by the agar incorporation method described below. MA 1347, 3-(dimethylaminomethyl)flavanone (disclosed in U.S. Pat. No. 3,753,985) was used as a comparative standard along with controls for each solvent system used.
(§4) A series of agar plates containing two-fold dilutions of each compound to be tested, ranging in concentration from 100 to 3.1 mcg/ml of agar medium was prepared. Aliquots of each concentration (100, 50, 25, 12.5, 6.2, and 3.1) prepared in N,N-dimethylformamide or 50 percent aqueous DMF were added to liquid Eugon agar at 48° C. (one part test solution to 100 parts agar). In some cases, tests with further dilutions to 0.125 mcg/ml were conducted. The agar medium, containing the 3-methylene flavanone or chromanone compound to be tested, was then dispensed into petri dishes and allowed to solidify. The solidified plates were kept overnight at room temperatures to dry the surface of the agar.
(§5) The agar plates were then inoculated with a drop of the standardized cell or spore suspension. Inoculated plates were incubated at 32° C. The inhibition end-point or minimum inhibitory concentration (MIC) shown in Table D represent the lowest concentration of test compound which inhibited the growth of the microorganism. Visual determination of growth inhibition was used. Bacteria and yeast end-points were determined after 24 hours incubation; molds, dermatophytes and anaerobes after 48-72 hours incubation. MIC values shown as ranges represent the extremes found in repeat assays. Virtually all such values were written plus or minus one dilution, the accepted variation of a two-fold dilution assay.

[1] = tested on: Staphylococcus aureus ATCC 6538; assay: MIC, agar incorporation method; assay type: cell-based; details: Staphylococcus aureus, ATCC6538; S. aureus ATCC 6538; 32° C., 24 hours; read-out: Minimal Inhibitory Concentration
Method: as §1, §2, §3, §4, §5

T. mentagrophytes TM-2 = assay: MIC, agar incorporation method; assay type: cell-based; details: Trichophyton mentagrophytes, TM2, 32° C., 48-72 hours, read-out: Minimal Inhibitory Concentration
Method: as §1, §2, §3, §4, §5

[2] = tested on: Trichophyton mentagrophytes ATCC 4807; assay: MIC, agar incorporation method; assay type: cell-based; details: ATCC4807, 32° C., 48-72 hours, read-out: Minimal Inhibitory Concentration
Method: as §1, §2, §3, §4, §5

T. mentagrophytes CDC = assay: MIC, agar incorporation method; assay type: cell-based; details: Trichophyton mentagrophytes, 32° C., 48-72 hours, read-out: Minimal Inhibitory Concentration
Method: as §1, §2, §3, §4, §5

T. tonsurans ATCC 10217 = assay: MIC, agar incorporation method; assay type: cell-based; details: Trichophyton tonsurans, ATCC10217; 32° C., 48-72 hours; read-out: Minimal Inhibitory Concentration
Method: as §1, §2, §3, §4, §5

[3] = tested on: Streptococcus faecalis ATCC 10541; assay: MIC, agar incorporation method; assay type: cell-based; details: Enterococcus faecalis, ATCC10541; 32° C., 24 hours; read-out: Minimal Inhibitory Concentration
Method: as §1, §2, §3, §4, §5

C. guillermondii VM 42 = assay: MIC, agar incorporation method; assay type: cell-based; details: 32° C., 24 hours; read-out: Minimal Inhibitory Concentration
Method: as §1, §2, §3, §4, §5

C. tropicalis NRRL Y1410 = assay: MIC, agar incorporation method; assay type: cell-based; details: Candida tropicalis, NRRLY1410; 32° C., 24 hours; read-out: Minimal Inhibitory Concentration
Method: as §1, §2, §3, §4, §5

C. albicans NRRL Y-477 = assay: MIC, agar incorporation method; assay type: cell-based; details: Candida albicans, NRRLY477, 32° C., 24 hours, read-out: Minimal Inhibitory Concentration
Method: as §1, §2, §3, §4, §5

[4] = tested on: Escherichia coli ATCC 8739; assay: MIC, agar incorporation method; assay type: cell-based; details: ATCC8739, 32° C., 24 hours, read-out: Minimal Inhibitory Concentration
Method: as §1, §2, §3, §4, §5

[5] = tested on: Pseudomonas aeruginosa ATCC 14502; assay: MIC, agar incorporation method; assay type: cell-based; details: ATCC14502, 32° C., 24 hours, read-out: Minimal Inhibitory Concentration
Method: as §1, §2, §3, §4, §5

C. krusei VM 29B = assay: MIC, agar incorporation method; assay type: cell-based; details: Pichia kudriavzevii, VM29B; 32° C., 24 hours; read-out: Minimal Inhibitory Concentration
Method: as §1, §2, §3, §4, §5

[6] = tested on: Microsporum gypseum ATCC 14683; assay: MIC, agar incorporation method; assay type: cell-based; details: Nannizzia gypsea, ATCC14683, 32° C., 48-72 hours; read-out: Minimal Inhibitory Concentration
Method: as §1, §2, §3, §4, §5

[7] = tested on: Candida albicans ATCC 10231; assay: MIC, agar incorporation method; assay type: cell-based; details: ATCC10231, C. albicans ATCC 10231, 32° C., 24 hours, read-out: Minimal Inhibitory Concentration
Method: as §1, §2, §3, §4, §5

S. aureus NRRL B2747 [8] = assay: MIC, agar incorporation method; assay type: cell-based, Staphylococcus aureus; details: Staphylococcus aureus, NRRLB2747, 32° C., 24 hours, read-out: Minimal Inhibitory Concentration
Method: as §1, §2, §3, §4, §5

[9] = tested on: Propionobacterium acnes ATCC 6919; assay: MIC, agar incorporation method, anaerobic; assay type: cell-based; details: 48 hours at 35° C., GasPak Anaerobic Jar, read-out: Minimal Inhibitory Concentration
Method: as §1, §2, §3, §4, §5
(§6) *Anaerobic: 48 hours incubation at 35° C. GasPak Anaerobic Jar

[10] = tested on: Bacteriodides fragilis ATCC 8482; assay: MIC, agar incorporation method, anaerobic; assay type: cell-based; details: 48 hours at 35° C., GasPak Anaerobic Jar, read-out: Minimal Inhibitory Concentration
Method: as §1, §2, §3, §4, §5, §6

S. aureus NRRL B2747 [11] = assay: MIC, agar incorporation method, anaerobic; assay type: cell-based; details: Staphylococcus aureus, NRRLB2747, 48 hours at 35° C., GasPak Anaerobic Jar, read-out: Minimal Inhibitory Concentration
Method: as §1, §2, §3, §4, §5, §6

[12] = tested on: Clostridium sporogenes ATCC 11437; assay: MIC, agar incorporation method, anaerobic; assay type: cell-based; details: ATCC11437, 48 hours at 35° C., GasPak Anaerobic Jar, read-out: Minimal Inhibitory Concentration
Method: as §1, §2, §3, §4, §5, §6

A. fumigatus NRRL 165 = assay: MIC, agar incorporation method; assay type: cell-based; details: Aspergillus fumigatus, NRRL165, 32° C., 48-72 hours, read-out: Minimal Inhibitory Concentration
Method: as §1, §2, §3, §4, §5

T. rubrum ATCC 10218 = assay: MIC, agar incorporation method; assay type: cell-based; details: Trichophyton rubrum, ATCC10218; 32° C., 48-72 hours; read-out: Minimal Inhibitory Concentration
Method: as §1, §2, §3, §4, §5

[13] = tested on: Aspergillus niger ATCC 16404; assay: MIC, agar incorporation method; assay type: cell-based; details: ATCC16404, 32° C., 48-72 hours, read-out: Minimal Inhibitory Concentration
Method: as §1, §2, §3, §4, §5

| MIC [1] | MIC (T. mentagrophytes TM-2) | MIC [2] | MIC (T. mentagrophytes CDC) | MIC [3] | MIC (C. guillermondii VM 42) | MIC (C. tropicalis NRRL Y1410) | MIC (C. albicans NRRL Y-477) | MIC [4] | MIC [5] | MIC (C. krusei VM 29B) | MIC [6] | MIC [7] | MIC (S. aureus NRRL B2747 [8]) | MIC (A. fumigatus NRRL 165) | MIC (T. rubrum ATCC 10218) | MIC [13] | Structure (SMILES) | MIC (A. fumigatus NRRL 163) | further results |
| --- | --- | --- | --- | --- | --- | --- | --- | --- | --- | --- | --- | --- | --- | --- | --- | --- | --- | --- | --- |
| 50 µg/mL (≈ 179 µM) | 25 µg/mL (≈ 89.5 µM) | 25 µg/mL (≈ 89.5 µM) | 25 µg/mL (≈ 89.5 µM) | > 100 µg/mL | > 100 µg/mL | > 100 µg/mL | > 100 µg/mL | > 100 µg/mL | > 100 µg/mL | 100 µg/mL (≈ 358 µM) | 25 µg/mL (≈ 89.5 µM) | > 100 µg/mL | 50 µg/mL (≈ 179 µM) | > 100 µg/mL | 12.5 µg/mL (≈ 44.7 µM) | > 100 µg/mL | C=C1C(=O)c2ccccc2OC1c1ccc(N(C)C)cc1 (stereo not drawn) [Ex. 11, 4'-dimethylamino-3-methylene flavanone] | – | – |
| 12.5 µg/mL (≈ 47.8 µM) | 12.5 µg/mL (≈ 47.8 µM) | 12.5 µg/mL (≈ 47.8 µM) | 25 µg/mL (≈ 95.7 µM) | 100 µg/mL (≈ 383 µM) | 100 µg/mL (≈ 383 µM) | 50 µg/mL (≈ 191 µM) | 50 µg/mL (≈ 191 µM) | > 100 µg/mL | > 100 µg/mL | 50 µg/mL (≈ 191 µM) | 12.5 µg/mL (≈ 47.8 µM) | 50 µg/mL (≈ 191 µM) | 12.5 µg/mL (≈ 47.8 µM) | 100 µg/mL (≈ 383 µM) | 6.2 µg/mL (≈ 23.7 µM) | 50 µg/mL (≈ 191 µM) | C=C1C(=O)c2ccccc2OC1c1ccc(C#N)cc1 (stereo not drawn) [Ex. 16, 4'-cyano-3-methylene flavanone] | – | – |
| 6.2 µg/mL (≈ 15.7 µM) | 25 µg/mL (≈ 63.4 µM) | 12.5 µg/mL (≈ 31.7 µM) | 50 µg/mL (≈ 127 µM) | > 100 µg/mL | > 100 µg/mL | > 100 µg/mL | 100 µg/mL (≈ 254 µM) | > 100 µg/mL | > 100 µg/mL | 100 µg/mL (≈ 254 µM) | 50 µg/mL (≈ 127 µM) | 100 µg/mL (≈ 254 µM) | 12.5 µg/mL (≈ 31.7 µM) | > 100 µg/mL | 25 µg/mL (≈ 63.4 µM) | > 100 µg/mL | C=C1C(=O)c2cc(Br)ccc2OC1c1ccc(Br)cc1 (stereo not drawn) [Ex. 17, 4',6-dibromo-3-methylene flavanone] | > 100 µg/mL | – |

| Structure (SMILES) | MIC [1] | MIC (T. mentagrophytes TM-2) | MIC [2] | MIC (T. mentagrophytes CDC) | MIC [3] | MIC (C. guillermondii VM 42) | MIC (C. tropicalis NRRL Y1410) | MIC (C. albicans NRRL Y-477) | MIC [4] | MIC [5] | MIC (C. krusei VM 29B) | MIC [6] | MIC [7] | MIC (S. aureus NRRL B2747 [8]) | MIC (A. fumigatus NRRL 165) | MIC (T. rubrum ATCC 10218) | MIC [13] | MIC (A. fumigatus NRRL 163) | further results |
| --- | --- | --- | --- | --- | --- | --- | --- | --- | --- | --- | --- | --- | --- | --- | --- | --- | --- | --- | --- |
| C=C1C(=O)c2ccccc2OC1c1ccccc1 (stereo not drawn) [Ex. 1, 3-methylene flavanone] | 6.2 µg/mL (≈ 26.2 µM) | 12.5 µg/mL (≈ 52.9 µM) | 12.5 µg/mL (≈ 52.9 µM) | 12.5 µg/mL (≈ 52.9 µM) | 100 µg/mL (≈ 423 µM) | 100 µg/mL (≈ 423 µM) | 100 µg/mL (≈ 423 µM) | 50 µg/mL (≈ 212 µM) | > 100 µg/mL | > 100 µg/mL | 50 µg/mL (≈ 212 µM) | 6.2 to 12.5 µg/mL (≈ 26.2 to 52.9 µM) | 50 µg/mL (≈ 212 µM) | 12.5 µg/mL (≈ 52.9 µM) | – | – | – | 6.2 µg/mL (≈ 26.2 µM) | MIC (T. tonsurans ATCC 10217): 6.2 µg/mL (≈ 26.2 µM); MIC [9]: 12.5 µg/mL (≈ 52.9 µM); MIC [10]: 1.56 µg/mL (≈ 6.6 µM); MIC (S. aureus NRRL B2747 [11]): 25 µg/mL (≈ 106 µM); MIC [12]: 12.5 µg/mL (≈ 52.9 µM) |

Source: patent US4241069A, “3-Methylene flavanones and 3-methylene chromanones” (Miles Laboratories, Inc., priority 1979, dated 1980)
